Assays:
Test in all cases: 33PanQinase kinome-wide selectivity profile (Reaction Biology)
Assay type in all cases: biochemical
350 wild-type kinases [1] = target: T1, 350 wild-type kinases (Homo sapiens, UniProt O00238); conditions: kinase BMPR1B, ATP 3 µM, singlicate
T1 construct: purchased Reaction Biology (assay service)
Protocol: (§1) Compound RN341 was tested at two concentrations of 1 and 10 μM against a panel of 350 wild-type kinases in the ^33PanQinase assay. The assay was performed by Reaction Biology (www.reactionbiology.com/services/kinase-assays/kinase-panel-screening/).

350 wild-type kinases [2] = target: T2, 350 wild-type kinases (Homo sapiens, UniProt P06493); conditions: singlicate; for Residual activity (% of control), CDK1/CycA2: kinase CDK1/CycA2, ATP 0,3 µM; for Residual activity (% of control), CDK1/CycB1: kinase CDK1/CycB1; for Residual activity (% of control), CDK1/CycB1 / Residual activity (% of control), CDK1/CycE1: ATP 1 µM; for Residual activity (% of control), CDK1/CycE1: kinase CDK1/CycE1
T2 construct: purchased Reaction Biology (assay service)
Protocol: as §1

350 wild-type kinases [3] = target: T3, 350 wild-type kinases (Homo sapiens, UniProt P49336); conditions: kinase CDK8/CycC, ATP 1 µM, singlicate
T3 construct: purchased Reaction Biology (assay service)
Protocol: as §1

350 wild-type kinases [4] = target: T4, 350 wild-type kinases (Homo sapiens, UniProt Q07002); conditions: kinase CDK18/CycY, ATP 1 µM, singlicate
T4 construct: purchased Reaction Biology (assay service)
Protocol: as §1

350 wild-type kinases [5] = target: T5, 350 wild-type kinases (Homo sapiens, UniProt Q8IU85); conditions: kinase CAMK1D, ATP 0,3 µM, singlicate
T5 construct: purchased Reaction Biology (assay service)
Protocol: as §1

350 wild-type kinases [6] = target: T6, 350 wild-type kinases (Homo sapiens, UniProt P50613); conditions: kinase CDK7/CycH/MAT1, ATP 1 µM, singlicate
T6 construct: purchased Reaction Biology (assay service)
Protocol: as §1

350 wild-type kinases [7] = target: T7, 350 wild-type kinases (Homo sapiens, UniProt P78527); conditions: kinase DNAPK, ATP 1 µM, singlicate
T7 construct: purchased Reaction Biology (assay service)
Protocol: as §1

350 wild-type kinases [8] = target: T8, 350 wild-type kinases (Homo sapiens, UniProt Q96GD4); conditions: kinase AuroraB, ATP 10 µM, singlicate
T8 construct: purchased Reaction Biology (assay service)
Protocol: as §1

350 wild-type kinases [9] = target: T9, 350 wild-type kinases (Homo sapiens, UniProt Q9NYV4); conditions: kinase CDK12/CycK, ATP 0,3 µM, singlicate
T9 construct: purchased Reaction Biology (assay service)
Protocol: as §1

350 wild-type kinases [10] = target: T10, 350 wild-type kinases (Homo sapiens, UniProt Q5S007); conditions: 1 and 10 μM; authors think kinase was inactive in panel
T10 construct: purchased Reaction Biology (assay service)
Protocol: as §1

350 wild-type kinases [11] = target: T11, 350 wild-type kinases (Homo sapiens, UniProt Q13131); conditions: kinase AMPKalpha1, ATP 3 µM, singlicate
T11 construct: purchased Reaction Biology (assay service)
Protocol: as §1

350 wild-type kinases [12] = target: T12, 350 wild-type kinases (Homo sapiens, UniProt P41279); conditions: kinase COT, ATP 0,3 µM, singlicate
T12 construct: purchased Reaction Biology (assay service)
Protocol: as §1

350 wild-type kinases [13] = target: T13, 350 wild-type kinases (Homo sapiens, UniProt Q9UIK4); conditions: kinase DAPK2, ATP 0,1 µM, singlicate
T13 construct: purchased Reaction Biology (assay service)
Protocol: as §1

350 wild-type kinases [14] = target: T14, 350 wild-type kinases (Homo sapiens, UniProt P24941); conditions: singlicate; for Residual activity (% of control), CDK2/CycA2: kinase CDK2/CycA2, ATP 0,3 µM; for Residual activity (% of control), CDK2/CycD1: kinase CDK2/CycD1, ATP 3 µM; for Residual activity (% of control), CDK2/CycE1: kinase CDK2/CycE1, ATP 1 µM
T14 construct: purchased Reaction Biology (assay service)
Protocol: as §1

350 wild-type kinases [15] = target: T15, 350 wild-type kinases (Homo sapiens, UniProt Q9HAZ1); conditions: kinase CLK4, ATP 0,1 µM, singlicate
T15 construct: purchased Reaction Biology (assay service)
Protocol: as §1

350 wild-type kinases [16] = target: T16, 350 wild-type kinases (Homo sapiens, UniProt P49759); conditions: kinase CLK1, ATP 0,3 µM, singlicate
T16 construct: purchased Reaction Biology (assay service)
Protocol: as §1

350 wild-type kinases [17] = target: T17, 350 wild-type kinases (Homo sapiens, UniProt Q8TDC3); conditions: kinase BRSK1, ATP 1 µM, singlicate
T17 construct: purchased Reaction Biology (assay service)
Protocol: as §1

350 wild-type kinases [18] = target: T18, 350 wild-type kinases (Homo sapiens, UniProt Q99683); conditions: kinase ASK1, ATP 3 µM, singlicate
T18 construct: purchased Reaction Biology (assay service)
Protocol: as §1

350 wild-type kinases [19] = target: T19, 350 wild-type kinases (Homo sapiens, UniProt Q13882); conditions: kinase BRK, ATP 3 µM, singlicate
T19 construct: purchased Reaction Biology (assay service)
Protocol: as §1

350 wild-type kinases [20] = target: T20, 350 wild-type kinases (Homo sapiens, UniProt Q9Y6M4); conditions: kinase CK1gamma3, ATP 0,1 µM, singlicate
T20 construct: purchased Reaction Biology (assay service)
Protocol: as §1

350 wild-type kinases [21] = target: T21, 350 wild-type kinases (Homo sapiens, UniProt Q15131); conditions: kinase CDK10/CycQ, ATP 3 µM, singlicate
T21 construct: purchased Reaction Biology (assay service)
Protocol: as §1

350 wild-type kinases [22] = target: T22, 350 wild-type kinases (Homo sapiens, UniProt P37023); conditions: kinase ACVRL1, ATP 1 µM, singlicate
T22 construct: purchased Reaction Biology (assay service)
Protocol: as §1

350 wild-type kinases [23] = target: T23, 350 wild-type kinases (Homo sapiens, UniProt Q8IWQ3); conditions: kinase BRSK2, ATP 1 µM, singlicate
T23 construct: purchased Reaction Biology (assay service)
Protocol: as §1

T2 sequence (P06493 whole entry): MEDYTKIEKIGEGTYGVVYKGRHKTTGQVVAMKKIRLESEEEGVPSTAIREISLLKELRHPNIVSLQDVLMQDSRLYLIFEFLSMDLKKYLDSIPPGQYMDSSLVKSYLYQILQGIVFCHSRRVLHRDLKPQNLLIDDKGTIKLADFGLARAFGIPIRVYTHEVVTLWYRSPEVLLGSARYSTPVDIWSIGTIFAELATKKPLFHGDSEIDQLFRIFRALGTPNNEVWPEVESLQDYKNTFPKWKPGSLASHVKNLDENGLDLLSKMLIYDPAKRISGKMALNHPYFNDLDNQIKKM
T21 sequence (Q15131 whole entry): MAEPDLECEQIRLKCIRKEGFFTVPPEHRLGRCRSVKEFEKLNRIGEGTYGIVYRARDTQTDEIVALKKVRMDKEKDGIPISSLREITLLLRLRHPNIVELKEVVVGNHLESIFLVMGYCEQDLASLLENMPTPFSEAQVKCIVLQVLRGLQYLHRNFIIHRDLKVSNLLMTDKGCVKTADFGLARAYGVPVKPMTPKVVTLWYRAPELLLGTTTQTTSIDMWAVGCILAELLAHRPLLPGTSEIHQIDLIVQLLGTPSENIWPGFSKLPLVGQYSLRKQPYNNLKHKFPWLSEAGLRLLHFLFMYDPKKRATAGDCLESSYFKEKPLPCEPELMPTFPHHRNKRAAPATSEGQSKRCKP
T18 sequence (Q99683 whole entry): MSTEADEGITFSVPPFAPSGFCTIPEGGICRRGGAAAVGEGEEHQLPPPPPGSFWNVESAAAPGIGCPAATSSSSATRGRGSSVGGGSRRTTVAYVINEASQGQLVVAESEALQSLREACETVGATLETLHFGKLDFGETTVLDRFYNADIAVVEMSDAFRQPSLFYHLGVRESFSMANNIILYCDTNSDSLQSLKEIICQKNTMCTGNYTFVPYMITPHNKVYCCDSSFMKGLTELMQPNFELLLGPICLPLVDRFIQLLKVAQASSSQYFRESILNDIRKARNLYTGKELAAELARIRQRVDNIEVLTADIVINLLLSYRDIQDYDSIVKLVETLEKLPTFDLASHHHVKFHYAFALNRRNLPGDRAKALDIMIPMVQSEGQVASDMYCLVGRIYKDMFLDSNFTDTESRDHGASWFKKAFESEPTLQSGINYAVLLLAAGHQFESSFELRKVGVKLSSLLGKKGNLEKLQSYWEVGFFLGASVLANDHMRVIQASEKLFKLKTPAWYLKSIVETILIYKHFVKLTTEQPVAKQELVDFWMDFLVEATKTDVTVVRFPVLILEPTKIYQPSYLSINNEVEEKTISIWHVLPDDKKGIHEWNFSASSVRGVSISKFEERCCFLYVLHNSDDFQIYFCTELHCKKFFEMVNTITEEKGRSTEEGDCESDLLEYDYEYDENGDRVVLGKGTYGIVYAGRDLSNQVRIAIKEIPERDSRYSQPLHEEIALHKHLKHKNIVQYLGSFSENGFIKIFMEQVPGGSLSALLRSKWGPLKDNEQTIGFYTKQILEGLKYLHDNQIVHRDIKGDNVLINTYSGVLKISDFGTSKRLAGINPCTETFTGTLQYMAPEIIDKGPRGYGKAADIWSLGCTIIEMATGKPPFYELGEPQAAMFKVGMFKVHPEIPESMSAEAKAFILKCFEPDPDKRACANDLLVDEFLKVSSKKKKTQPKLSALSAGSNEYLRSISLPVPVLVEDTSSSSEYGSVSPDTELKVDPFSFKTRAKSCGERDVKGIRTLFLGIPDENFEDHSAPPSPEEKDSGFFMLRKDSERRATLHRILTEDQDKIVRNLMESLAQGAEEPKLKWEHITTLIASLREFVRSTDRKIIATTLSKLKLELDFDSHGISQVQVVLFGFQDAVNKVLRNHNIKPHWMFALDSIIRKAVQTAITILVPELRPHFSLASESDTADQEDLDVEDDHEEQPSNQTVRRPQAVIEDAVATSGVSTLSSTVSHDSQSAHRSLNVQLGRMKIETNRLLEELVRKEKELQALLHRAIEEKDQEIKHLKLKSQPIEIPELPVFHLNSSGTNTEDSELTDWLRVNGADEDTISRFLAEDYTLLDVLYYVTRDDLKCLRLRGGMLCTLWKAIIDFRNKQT
T16 sequence (P49759 whole entry): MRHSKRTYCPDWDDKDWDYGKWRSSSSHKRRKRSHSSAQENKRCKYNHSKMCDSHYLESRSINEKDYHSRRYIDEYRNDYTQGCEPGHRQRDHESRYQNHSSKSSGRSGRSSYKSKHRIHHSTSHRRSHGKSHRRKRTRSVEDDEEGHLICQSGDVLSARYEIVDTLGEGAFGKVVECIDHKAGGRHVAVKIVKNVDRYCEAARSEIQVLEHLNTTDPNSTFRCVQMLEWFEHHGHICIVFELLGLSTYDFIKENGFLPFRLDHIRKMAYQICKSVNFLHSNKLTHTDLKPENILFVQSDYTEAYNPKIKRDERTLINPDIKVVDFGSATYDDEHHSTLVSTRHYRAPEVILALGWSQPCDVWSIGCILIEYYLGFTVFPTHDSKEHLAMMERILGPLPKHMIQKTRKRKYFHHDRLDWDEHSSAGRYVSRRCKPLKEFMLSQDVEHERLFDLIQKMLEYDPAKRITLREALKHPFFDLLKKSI
T8 sequence (Q96GD4 whole entry): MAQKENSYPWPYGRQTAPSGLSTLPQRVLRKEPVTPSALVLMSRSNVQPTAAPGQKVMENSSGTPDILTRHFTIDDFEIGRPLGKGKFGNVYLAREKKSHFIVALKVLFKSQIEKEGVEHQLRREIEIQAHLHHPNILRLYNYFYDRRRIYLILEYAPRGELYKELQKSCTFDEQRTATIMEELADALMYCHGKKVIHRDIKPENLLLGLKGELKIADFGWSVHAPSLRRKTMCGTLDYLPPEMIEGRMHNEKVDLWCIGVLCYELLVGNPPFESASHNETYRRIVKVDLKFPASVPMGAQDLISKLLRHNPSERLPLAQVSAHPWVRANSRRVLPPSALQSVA
T6 sequence (P50613 whole entry): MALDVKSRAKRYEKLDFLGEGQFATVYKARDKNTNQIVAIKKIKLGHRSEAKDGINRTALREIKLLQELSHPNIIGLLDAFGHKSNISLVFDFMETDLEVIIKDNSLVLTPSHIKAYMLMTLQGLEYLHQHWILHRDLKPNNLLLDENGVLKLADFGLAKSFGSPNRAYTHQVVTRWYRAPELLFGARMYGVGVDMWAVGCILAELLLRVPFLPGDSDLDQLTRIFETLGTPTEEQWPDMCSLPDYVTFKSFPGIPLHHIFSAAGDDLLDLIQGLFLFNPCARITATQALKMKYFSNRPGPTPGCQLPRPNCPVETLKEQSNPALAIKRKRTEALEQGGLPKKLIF
T15 sequence (Q9HAZ1 whole entry): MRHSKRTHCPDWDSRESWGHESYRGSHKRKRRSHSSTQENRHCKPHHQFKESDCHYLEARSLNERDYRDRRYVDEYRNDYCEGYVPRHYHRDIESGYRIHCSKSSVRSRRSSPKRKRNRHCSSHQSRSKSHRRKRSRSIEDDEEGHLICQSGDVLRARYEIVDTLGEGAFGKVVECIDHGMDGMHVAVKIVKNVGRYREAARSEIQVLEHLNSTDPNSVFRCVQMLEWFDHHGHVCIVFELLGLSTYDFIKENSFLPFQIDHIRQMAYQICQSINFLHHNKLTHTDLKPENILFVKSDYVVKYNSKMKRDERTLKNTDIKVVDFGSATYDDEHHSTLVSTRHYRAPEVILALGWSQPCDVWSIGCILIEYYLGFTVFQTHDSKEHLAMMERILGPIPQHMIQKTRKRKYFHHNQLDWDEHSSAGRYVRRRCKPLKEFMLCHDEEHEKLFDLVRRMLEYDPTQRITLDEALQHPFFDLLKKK
T20 sequence (Q9Y6M4 whole entry): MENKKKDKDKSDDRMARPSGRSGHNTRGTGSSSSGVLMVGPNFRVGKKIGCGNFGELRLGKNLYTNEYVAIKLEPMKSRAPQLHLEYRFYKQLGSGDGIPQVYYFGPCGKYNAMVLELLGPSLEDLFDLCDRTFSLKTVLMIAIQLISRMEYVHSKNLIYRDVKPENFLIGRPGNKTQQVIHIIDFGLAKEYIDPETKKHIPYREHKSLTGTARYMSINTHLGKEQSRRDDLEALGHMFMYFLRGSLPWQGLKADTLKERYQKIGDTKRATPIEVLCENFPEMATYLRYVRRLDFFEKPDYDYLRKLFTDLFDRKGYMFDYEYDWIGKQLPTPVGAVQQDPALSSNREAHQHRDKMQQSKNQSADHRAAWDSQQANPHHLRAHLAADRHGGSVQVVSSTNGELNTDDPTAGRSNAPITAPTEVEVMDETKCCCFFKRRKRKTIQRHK
T13 sequence (Q9UIK4 whole entry): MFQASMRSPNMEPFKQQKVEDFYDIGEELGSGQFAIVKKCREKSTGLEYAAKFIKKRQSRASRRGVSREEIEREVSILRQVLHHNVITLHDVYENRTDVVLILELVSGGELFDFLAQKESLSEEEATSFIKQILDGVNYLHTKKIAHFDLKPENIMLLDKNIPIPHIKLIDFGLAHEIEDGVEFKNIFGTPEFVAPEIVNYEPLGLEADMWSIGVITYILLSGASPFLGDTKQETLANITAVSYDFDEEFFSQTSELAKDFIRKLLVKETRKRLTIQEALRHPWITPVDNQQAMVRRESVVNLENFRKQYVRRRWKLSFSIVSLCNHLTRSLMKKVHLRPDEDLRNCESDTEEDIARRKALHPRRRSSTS
T12 sequence (P41279 whole entry): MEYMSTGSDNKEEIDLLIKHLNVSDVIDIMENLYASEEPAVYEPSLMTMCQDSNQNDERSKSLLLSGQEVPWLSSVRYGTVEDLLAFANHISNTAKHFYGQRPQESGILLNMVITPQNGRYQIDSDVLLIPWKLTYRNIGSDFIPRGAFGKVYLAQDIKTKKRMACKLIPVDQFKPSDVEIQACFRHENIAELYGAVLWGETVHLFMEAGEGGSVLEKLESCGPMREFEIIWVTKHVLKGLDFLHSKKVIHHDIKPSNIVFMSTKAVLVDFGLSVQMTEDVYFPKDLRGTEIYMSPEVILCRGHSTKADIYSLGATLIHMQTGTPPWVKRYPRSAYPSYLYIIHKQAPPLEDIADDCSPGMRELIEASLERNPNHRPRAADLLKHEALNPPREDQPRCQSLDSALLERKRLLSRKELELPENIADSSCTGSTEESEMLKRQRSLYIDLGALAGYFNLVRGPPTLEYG

CCSc1nc(NC)c2c(-c3cccc(NC(=O)Nc4cc(C(C)(C)C)nn4-c4ccc(C)cc4)c3)c[nH]c2n1 [Compound 32]
Residual activity (% of control), BMPR1B (350 wild-type kinases [1]; Assay Conc. 1.0E-05 M): 102 % of control | Residual activity (% of control), BMPR1B (350 wild-type kinases [1]; Assay Conc. 1.0E-06 M): 109 % of control | Residual activity (% of control), CDK1/CycA2 (350 wild-type kinases [2]; Assay Conc. 1.0E-05 M): 62 % of control | Residual activity (% of control), CDK1/CycA2 (350 wild-type kinases [2]; Assay Conc. 1.0E-06 M): 110 % of control | Residual activity (% of control), CDK1/CycB1 (350 wild-type kinases [2]; Assay Conc. 1.0E-05 M): 82 % of control | Residual activity (% of control), CDK1/CycB1 (350 wild-type kinases [2]; Assay Conc. 1.0E-06 M): 105 % of control | Residual activity (% of control), CDK1/CycE1 (350 wild-type kinases [2]; Assay Conc. 1.0E-05 M): 51 % of control | Residual activity (% of control), CDK1/CycE1 (350 wild-type kinases [2]; Assay Conc. 1.0E-06 M): 104 % of control | Residual activity (% of control), CDK8/CycC (350 wild-type kinases [3]; Assay Conc. 1.0E-05 M): 36 % of control | Residual activity (% of control), CDK8/CycC (350 wild-type kinases [3]; Assay Conc. 1.0E-06 M): 91 % of control | Residual activity (% of control), CDK18/CycY (350 wild-type kinases [4]; Assay Conc. 1.0E-05 M): 73 % of control | Residual activity (% of control), CDK18/CycY (350 wild-type kinases [4]; Assay Conc. 1.0E-06 M): 110 % of control | Residual activity (% of control), CAMK1D (350 wild-type kinases [5]; Assay Conc. 1.0E-05 M): 101 % of control | Residual activity (% of control), CAMK1D (350 wild-type kinases [5]; Assay Conc. 1.0E-06 M): 113 % of control | Residual activity (% of control), CDK7/CycH/MAT1 (350 wild-type kinases [6]; Assay Conc. 1.0E-05 M): 75 % of control | Residual activity (% of control), CDK7/CycH/MAT1 (350 wild-type kinases [6]; Assay Conc. 1.0E-06 M): 100 % of control | Residual activity (% of control), DNAPK (350 wild-type kinases [7]; Assay Conc. 1.0E-05 M): 82 % of control | Residual activity (% of control), DNAPK (350 wild-type kinases [7]; Assay Conc. 1.0E-06 M): 99 % of control | Residual activity (% of control), AuroraB (350 wild-type kinases [8]; Assay Conc. 1.0E-05 M): 74 % of control | Residual activity (% of control), AuroraB (350 wild-type kinases [8]; Assay Conc. 1.0E-06 M): 107 % of control | Residual activity (% of control), CDK12/CycK (350 wild-type kinases [9]; Assay Conc. 1.0E-05 M): 87 % of control | Residual activity (% of control), CDK12/CycK (350 wild-type kinases [9]; Assay Conc. 1.0E-06 M): 99 % of control | LRRK2 inhibition in the 33PanQinase screen (350 wild-type kinases [10]): not detected as a LRRK2 inhibitor | Residual activity (% of control), AMPKalpha1 (350 wild-type kinases [11]; Assay Conc. 1.0E-05 M): 85 % of control | Residual activity (% of control), AMPKalpha1 (350 wild-type kinases [11]; Assay Conc. 1.0E-06 M): 95 % of control | Residual activity (% of control), COT (350 wild-type kinases [12]; Assay Conc. 1.0E-05 M): 69 % of control | Residual activity (% of control), COT (350 wild-type kinases [12]; Assay Conc. 1.0E-06 M): 96 % of control | Residual activity (% of control), DAPK2 (350 wild-type kinases [13]; Assay Conc. 1.0E-05 M): 88 % of control | Residual activity (% of control), DAPK2 (350 wild-type kinases [13]; Assay Conc. 1.0E-06 M): 93 % of control | Residual activity (% of control), CDK2/CycA2 (350 wild-type kinases [14]; Assay Conc. 1.0E-05 M): 46 % of control | Residual activity (% of control), CDK2/CycA2 (350 wild-type kinases [14]; Assay Conc. 1.0E-06 M): 105 % of control | Residual activity (% of control), CDK2/CycD1 (350 wild-type kinases [14]; Assay Conc. 1.0E-05 M): 78 % of control | Residual activity (% of control), CDK2/CycD1 (350 wild-type kinases [14]; Assay Conc. 1.0E-06 M): 110 % of control | Residual activity (% of control), CDK2/CycE1 (350 wild-type kinases [14]; Assay Conc. 1.0E-05 M): 58 % of control | Residual activity (% of control), CDK2/CycE1 (350 wild-type kinases [14]; Assay Conc. 1.0E-06 M): 103 % of control | Residual activity (% of control), CLK4 (350 wild-type kinases [15]; Assay Conc. 1.0E-05 M): 43 % of control | Residual activity (% of control), CLK4 (350 wild-type kinases [15]; Assay Conc. 1.0E-06 M): 80 % of control | Residual activity (% of control), CLK1 (350 wild-type kinases [16]; Assay Conc. 1.0E-05 M): 54 % of control | Residual activity (% of control), CLK1 (350 wild-type kinases [16]; Assay Conc. 1.0E-06 M): 86 % of control | Residual activity (% of control), BRSK1 (350 wild-type kinases [17]; Assay Conc. 1.0E-05 M): 89 % of control | Residual activity (% of control), BRSK1 (350 wild-type kinases [17]; Assay Conc. 1.0E-06 M): 101 % of control | Residual activity (% of control), ASK1 (350 wild-type kinases [18]; Assay Conc. 1.0E-05 M): 71 % of control | Residual activity (% of control), ASK1 (350 wild-type kinases [18]; Assay Conc. 1.0E-06 M): 103 % of control | Residual activity (% of control), BRK (350 wild-type kinases [19]; Assay Conc. 1.0E-05 M): 79 % of control | Residual activity (% of control), BRK (350 wild-type kinases [19]; Assay Conc. 1.0E-06 M): 109 % of control | Residual activity (% of control), CK1gamma3 (350 wild-type kinases [20]; Assay Conc. 1.0E-05 M): 99 % of control | Residual activity (% of control), CK1gamma3 (350 wild-type kinases [20]; Assay Conc. 1.0E-06 M): 106 % of control | Residual activity (% of control), CDK10/CycQ (350 wild-type kinases [21]; Assay Conc. 1.0E-05 M): 71 % of control | Residual activity (% of control), CDK10/CycQ (350 wild-type kinases [21]; Assay Conc. 1.0E-06 M): 98 % of control | Residual activity (% of control), ACVRL1 (350 wild-type kinases [22]; Assay Conc. 1.0E-05 M): 80 % of control | Residual activity (% of control), ACVRL1 (350 wild-type kinases [22]; Assay Conc. 1.0E-06 M): 97 % of control | Residual activity (% of control), BRSK2 (350 wild-type kinases [23]; Assay Conc. 1.0E-05 M): 84 % of control | Residual activity (% of control), BRSK2 (350 wild-type kinases [23]; Assay Conc. 1.0E-06 M): 103 % of control
